Data published in ChEMBL document CHEMBL3399962, “Design and synthesis of a novel candidate compound NTI-007 targeting sodium taurocholate cotransporting polypeptide [NTCP]-APOA1-HBx-Beclin1-mediated autophagic pathway in HBV therapy” (Bioorg Med Chem, 2015).
pIC50: −log10 of the molar value. Calls of active or inactive are those of the source. The rule behind the calls is not given here.

What was measured:
Hepatitis B virus [1] = test: Antiviral activity against hepatitis B viral in human HepG2.2.15 cells assessed as HBeAg secretion after 9 days by ELISA; type: functional, organism-based; settings: HepG2 2.2.15, 216 h
[2] = Selectivity index, ratio of CC50 for human HepG2.2.15 cells to IC50 for decrease in hepatitis B viral surface antigen HBsAg secretion in human HepG2.2.15 cells; type: functional
Hepatitis B virus [3] = test: Antiviral activity against hepatitis B viral in human HepG2.2.15 cells assessed as surface antigen HBsAg secretion after 9 days by ELISA; type: functional, organism-based; settings: HepG2 2.2.15, 216 h
[4] = Selectivity index, ratio of CC50 for human HepG2.2.15 cells to IC50 for decrease in hepatitis B viral HBeAg secretion in human HepG2.2.15 cells; type: functional
[5] = Cytotoxicity against human HepG2.2.15 cells assessed as cell death after 9 days by MTS assay; type: cell-based, HepG2 2.2.15
Hepatitis B virus [6] = test: Antiviral activity against hepatitis B viral in human HepG2.2.15 cells assessed as viral DNA replication after 9 days by real-time PCR analysis (reference value: 6.12 +/- 1.46 AU); type: functional, HepG2 2.2.15
Hepatitis B virus [7] = test: Antiviral activity against hepatitis B viral in human HepG2.2.15 cells assessed as viral surface antigen HBsAg level after 9 days by ELISA (reference value: 721 +/- 32 pg/ml); type: functional, HepG2 2.2.15
Hepatitis B virus [8] = test: Antiviral activity against hepatitis B viral in human HepG2.2.15 cells assessed as viral HBcAg level after 9 days by ELISA (reference value: 14.16 +/- 1.92 ng/ml); type: functional, HepG2 2.2.15
HepG2 2.2.15 [9] = test: Induction of autophagy in HBV-infected human HepG2.2.15 cells assessed as decrease in NTCP level after 12 to 24 hrs by Western blot analysis; type: functional
[10] = Antiproliferative activity against human HepG2.2.15 cells assessed as cell growth at 20 uM after 0 to 24 hrs by MTT assay; type: cell-based; settings: hepg2 2.2.15, 20 µM
[11] = molecular target: Sodium/bile acid cotransporter NTCP (Homo sapiens) (UniProt Q14973); test: Induction of human NTCP receptor inhibition-mediated autophagy in HBV-infected human HepG2.2.15 cells assessed as MDC positive cells at 20 uM after 12 hrs by […] (reference value: 0.60%); parameters: scale not given: the % may be the effect or the level left
HepG2 2.2.15 [12] = test: Induction of autophagy in HBV-infected human HepG2.2.15 cells assessed as decrease in HBx level after 12 to 24 hrs by Western blot analysis; type: functional
HepG2 2.2.15 [13] = test: Induction of autophagy in HBV-infected human HepG2.2.15 cells assessed as decrease in APOA1 level after 12 to 24 hrs by Western blot analysis; type: functional
[14] = molecular target: Sodium/bile acid cotransporter NTCP (Homo sapiens) (UniProt Q14973); test: Induction of human NTCP receptor inhibition-mediated autophagy in HBV-infected human HepG2.2.15 cells assessed as MDC positive cells at 20 uM after 24 hrs by […] (reference value: 0.60%); parameters: scale not given: the % may be the effect or the level left

Chain of Sodium/bile acid cotransporter NTCP (Homo sapiens) (Q14973 whole entry, looked up): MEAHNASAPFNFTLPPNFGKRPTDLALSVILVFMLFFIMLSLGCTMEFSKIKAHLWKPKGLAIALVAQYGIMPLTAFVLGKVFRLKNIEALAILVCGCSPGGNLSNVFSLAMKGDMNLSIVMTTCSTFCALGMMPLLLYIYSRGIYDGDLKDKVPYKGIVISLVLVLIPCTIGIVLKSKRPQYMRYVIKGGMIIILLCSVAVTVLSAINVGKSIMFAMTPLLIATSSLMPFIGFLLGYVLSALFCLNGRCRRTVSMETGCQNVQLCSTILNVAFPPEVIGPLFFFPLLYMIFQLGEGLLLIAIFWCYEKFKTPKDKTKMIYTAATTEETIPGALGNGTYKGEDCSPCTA

For `COC(=O)Nc1nc2cc(C(=O)c3ccc(O)c(OC)c3)ccc2[nH]1`, the pIC50 (Hepatitis B virus [1]) was 3.67, the “Selectivity Index” value [2] was 3.55 and the pIC50 (Hepatitis B virus [3]) was 4.53. The “Selectivity Index” value [4] was 0.49 and the CC50 at 216 h [5] was 105 µM.

`COC(=O)Nc1nc2ccc(C(=O)c3ccccc3)cc2[nH]1` [MEBENDAZOLE] gave a pIC50 (Hepatitis B virus [1]) of under 3.00, a pIC50 (Hepatitis B virus [3]) of under 3.00 and a CC50 at 216 h [5] of over 1000 µM.

For `COC(=O)Nc1nc2nc(C(=O)c3cccc(OC)c3)ccc2[nH]1`, the pIC50 (Hepatitis B virus [1]) was 3.78, the “Selectivity Index” value [2] was 1.89 and the pIC50 (Hepatitis B virus [3]) was 4.39. The “Selectivity Index” value [4] was 0.47 and the CC50 at 216 h [5] was 78.1 µM.

For `COC(=O)Nc1nc2cc(C(=O)c3cccc(OC)c3)ccc2[nH]1`, the pIC50 (Hepatitis B virus [1]) was 3.32, the “Selectivity Index” value [2] was 1.19 and the pIC50 (Hepatitis B virus [3]) was 4.01. The “Selectivity Index” value [4] was 0.24 and the CC50 at 216 h [5] was 117 µM.

With `Nc1ncnc2c1ncn2CCOCP(=O)(O)O` [ADEFOVIR] the pIC50 (Hepatitis B virus [1]) was 3.67, the Activity (Hepatitis B virus [6]) was 4.12 a.u and the “Selectivity Index” value [2] was 1.9. It also gave a pIC50 (Hepatitis B virus [3]) of 3.59, an Activity (Hepatitis B virus [7]) of 571 pg/mL and an Activity (Hepatitis B virus [8]) of 12100 pg/mL. For the same molecule, the “Selectivity Index” value [4] was 2.27 and the CC50 at 216 h [5] was 490 µM.

Molecule `COC(=O)Nc1nc2cc(C(=O)c3ccccn3)ccc2[nH]1` has a pIC50 (Hepatitis B virus [1]) of under 3.00, a pIC50 (Hepatitis B virus [3]) of under 3.00 and a CC50 at 216 h [5] of over 1000 µM.

For `COC(=O)Nc1nc2nc(C(=O)c3ccc(O)c(OC)c3)ccc2[nH]1`, the pIC50 (Hepatitis B virus [1]) was 4.60, the Activity (Hepatitis B virus [6]) was 2.46 a.u and the inhibition (HepG2 2.2.15 [9]) was “Active”. For the same molecule, the “Selectivity Index” value [2] was 11, the Activity [10] was “Toxic” and the Activity [11] was 9.3%. For the same molecule, the pIC50 (Hepatitis B virus [3]) was 4.75, the Activity (Hepatitis B virus [7]) was 258 pg/mL and the Activity (Hepatitis B virus [8]) was 8140 pg/mL. The inhibition (HepG2 2.2.15 [12]) was “Active”, the inhibition (HepG2 2.2.15 [13]) was “Active” and the “Selectivity Index” value [4] was 7.86. For the same molecule, the Activity [14] was 31.1% and the CC50 at 216 h [5] was 197 µM.

For `COC(=O)Nc1nc2cc(C(=O)c3cccc(F)c3)ccc2[nH]1`, the pIC50 (Hepatitis B virus [1]) was 3.40, the “Selectivity Index” value [2] was 0.09 and the pIC50 (Hepatitis B virus [3]) was 3.61. For the same molecule, the “Selectivity Index” value [4] was 0.05 and the CC50 at 216 h [5] was 21.2 µM.

In the case of `COC(=O)Nc1nc2nc(C(=O)c3ccc(OC)c(OC)c3)ccc2[nH]1`, the pIC50 (Hepatitis B virus [1]) was 4.11, the “Selectivity Index” value [2] was 2.74 and the pIC50 (Hepatitis B virus [3]) was 4.43. For the same molecule, the “Selectivity Index” value [4] was 1.3 and the CC50 at 216 h [5] was 102 µM.

For `COC(=O)Nc1nc2cc(C(=O)c3ccc(OC)c(OC)c3)ccc2[nH]1`, the pIC50 (Hepatitis B virus [1]) was 3.51, the “Selectivity Index” value [2] was 0.25 and the pIC50 (Hepatitis B virus [3]) was 3.72. For the same molecule, the “Selectivity Index” value [4] was 0.15 and the CC50 at 216 h [5] was 48.5 µM.

`COC(=O)Nc1nc2cc(C(=O)c3ccco3)ccc2[nH]1` showed a pIC50 (Hepatitis B virus [1]) of under 3.00, a pIC50 (Hepatitis B virus [3]) of under 3.00 and a CC50 at 216 h [5] of over 1000 µM.

In the case of `COC(=O)Nc1nc2cc(C(=O)c3ccc(F)cc3)ccc2[nH]1` [FLUBENDAZOLE], the Activity (Hepatitis B virus [6]) was 3.76 a.u, the “Selectivity Index” value [2] was 2.5 and the Activity (Hepatitis B virus [7]) was 361 pg/mL. The Activity (Hepatitis B virus [8]) was 10100 pg/mL and the “Selectivity Index” value [4] was 4.75.
